In brackets after ≈: the same amount, converted by molar mass.
How the values were obtained:
[1] = system: most of the pathogens tested; design: method as in doi:10.1002/jhet.2760; conditions: cited from earlier work
[2] = target: S. aureus topoisomerase IV; design: method as in PMID 29206345; conditions: value given in method; read-out: IC50 of internal standard, S. aureus topoisomerase IV; cited from earlier work
E. coli DNA gyrase = target: T1, E. coli DNA gyrase (Escherichia coli, UniProt P0AES4+P0AES6); test: E. coli DNA gyrase assay; type: biochemical
T1 construct: purchased Inspiralis
T1 sequence (P0AES4 whole entry, one chain of several): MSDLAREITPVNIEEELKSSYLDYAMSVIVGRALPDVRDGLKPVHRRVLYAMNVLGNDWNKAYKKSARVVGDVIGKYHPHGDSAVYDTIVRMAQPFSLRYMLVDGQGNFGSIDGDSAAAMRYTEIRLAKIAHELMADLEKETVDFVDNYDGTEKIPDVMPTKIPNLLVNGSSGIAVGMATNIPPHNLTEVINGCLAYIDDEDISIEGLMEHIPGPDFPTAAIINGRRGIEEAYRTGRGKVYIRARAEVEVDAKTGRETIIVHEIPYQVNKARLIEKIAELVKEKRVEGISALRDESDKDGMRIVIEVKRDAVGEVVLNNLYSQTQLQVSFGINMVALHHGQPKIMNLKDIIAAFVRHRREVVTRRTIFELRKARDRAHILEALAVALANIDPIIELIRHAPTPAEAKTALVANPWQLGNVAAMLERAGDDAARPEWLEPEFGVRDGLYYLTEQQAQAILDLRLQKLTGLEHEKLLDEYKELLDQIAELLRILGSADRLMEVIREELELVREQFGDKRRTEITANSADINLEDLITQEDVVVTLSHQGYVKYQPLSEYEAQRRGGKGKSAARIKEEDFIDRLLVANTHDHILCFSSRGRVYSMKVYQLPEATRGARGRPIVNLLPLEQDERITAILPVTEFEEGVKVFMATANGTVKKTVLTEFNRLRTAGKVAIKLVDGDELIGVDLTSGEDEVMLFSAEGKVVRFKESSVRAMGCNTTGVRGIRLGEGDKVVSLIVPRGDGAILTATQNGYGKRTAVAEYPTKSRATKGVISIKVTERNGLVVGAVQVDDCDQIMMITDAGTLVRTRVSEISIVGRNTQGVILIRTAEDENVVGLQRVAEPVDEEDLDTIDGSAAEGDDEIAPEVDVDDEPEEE
Description: (§1) IC50 assay determination was carried out in accordance with the procedures previously stated (see Appendix A).
(§2) Inhibitory activities were determined in an assay from Inspiralis on streptavidin-coated 96-well microtiter plates from Thermo scientific Pierce. […] After washing off the unbound oligonucleotide, the enzyme test was performed. […] After that, the TF buffer (50 mM NaOAc with pH 5.0, 50 mM NaCl and 50 mM MgCl2) was added to terminate the enzymatic reaction. After additional incubation for 30 min at rt, during which biotin-oligonucleotide-plasmid triplex was 19 formed, the unbound plasmid was washed off using TF buffer and SybrGOLD in T10 buffer (10 mM Tris HCl with pH 8.0 and 1 mM EDTA) was added. […] Initial screening was done at 100 or 10 μM concentration of inhibitors. […] GraphPad Prism software was used to calculate the IC50 values. The result is given as the average value of three independent measurements. […] Determination of inhibitory activities on E. coli and S. aureus Topoisomerase IV IC50 values were determined in an assay from Inspiralis on streptavidin-coated 96-well microtiter plates from Thermo scientific Pierce. […] After washing off the unbound oligonucleotide, the enzyme test was performed. The reaction volume of 30 μL in buffer (40 mM HEPES KOH with pH 7.6, 100 mM potassium glutamate, 10 mM magnesium acetate, 10 mM DTT, 1 mM ATP, 0.05 mg/mL albumin) contained 1.5 U of topoisomerase IV from E. coli or S. aureus, 0.75 μg of pNO1 supercoiled plasmid, and 3 μL solution of the inhibitor in DMSO (10%) and Tween 20 (0.008%). […] After additional incubation for 30 min at rt, during which triplex (biotin-oligonucleotide-plasmid) was formed, the unbound plasmid was washed off using TF buffer and SybrGOLD in T10 buffer (10 mM Tris HCl with pH 8.0 and 1 mM EDTA) was added. […] Initial screening was done at 100 or 10 μM concentration of inhibitors. […] GraphPad Prism software was used to calculate the IC50 values. The result is given as the average value of three independent measurements.

P. aeruginosa = test: MIC, two-fold serial dilution, P. aeruginosa; type: cell-based; conditions: Pseudomonas aeruginosa; read-out: Minimum Inhibitory Concentration (MIC), P. aeruginosa
Description: (§3) Table 2, using the reference drug ciprofloxacin, was presented with the MICs (minimal inhibitory concentrations) of these compounds against tested bacteria. […] The nature of aromatic substitution in the oxadiazole moiety tends to be correlated with higher antibacterial effects and the activity increased with (Ar) in the order of 2-pyridyl ≥ 3-pyridyl > 4-pyridyl > 2-Cl-Ph > 2-naphthyl.
(§4) On 96-well microtiter plates and […] of fresh bacterial culture of a single McFarland unit overnight, a double serial dilution of each compound […] in sterile standard saline was prepared for every single source well. Ciprofloxacin antibiotic (5 mg/mL^−1) and normal saline were included as standard references in each assay (see Appendix A).
(§5) In 96-well microtiter plates and […] of fresh bacterial culture of a single McFarland unit overnight, a double serial dilution of each compound […] in sterile standard saline was prepared for every single source well. Ciprofloxacin antibiotic (5 mg/mL^−1) and normal saline were included as standard reference in each assay. The plates were incubated at 37 °C overnight. As an indicator of bacterial growth, […] of p-iodonitrotetrazolium violet (INT) was added to each well and incubated at 37 °C for 30 min. […] The colorless tetrazolidium salt acts as an electron accepter and is reduced to a red colored formazan product by biological activity organisms. Where bacterial growth was inhibited, the solution in the well remained clear after incubation with INT.

E. coli topoisomerase IV = target: T2, E. coli topoisomerase IV (Escherichia coli, UniProt P0AFI2+P20083); test: E. coli topoisomerase IV assay; type: biochemical; conditions: read-out: RA (%), residual activity of E. coli Topo IV
T2 construct: purchased Inspiralis
T2 sequence (P0AFI2 whole entry): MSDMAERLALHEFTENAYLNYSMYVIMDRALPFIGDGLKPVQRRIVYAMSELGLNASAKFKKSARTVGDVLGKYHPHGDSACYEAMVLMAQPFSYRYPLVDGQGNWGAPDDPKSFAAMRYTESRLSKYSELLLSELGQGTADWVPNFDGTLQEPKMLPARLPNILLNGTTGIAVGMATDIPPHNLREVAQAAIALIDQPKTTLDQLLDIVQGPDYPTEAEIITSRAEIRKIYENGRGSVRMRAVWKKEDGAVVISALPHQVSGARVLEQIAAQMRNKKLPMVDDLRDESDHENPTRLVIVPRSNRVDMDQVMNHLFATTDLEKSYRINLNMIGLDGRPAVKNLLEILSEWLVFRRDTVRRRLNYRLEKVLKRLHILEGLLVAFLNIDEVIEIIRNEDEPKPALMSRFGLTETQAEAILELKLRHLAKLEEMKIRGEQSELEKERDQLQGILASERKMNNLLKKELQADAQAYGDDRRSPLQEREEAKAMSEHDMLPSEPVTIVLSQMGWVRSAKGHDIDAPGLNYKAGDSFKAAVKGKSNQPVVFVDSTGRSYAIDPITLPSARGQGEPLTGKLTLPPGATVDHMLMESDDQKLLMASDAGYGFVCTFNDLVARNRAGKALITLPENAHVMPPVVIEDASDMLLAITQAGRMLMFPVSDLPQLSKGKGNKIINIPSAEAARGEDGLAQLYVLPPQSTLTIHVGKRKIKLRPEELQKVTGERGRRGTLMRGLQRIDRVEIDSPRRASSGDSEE
T2 sequence (P20083 whole entry): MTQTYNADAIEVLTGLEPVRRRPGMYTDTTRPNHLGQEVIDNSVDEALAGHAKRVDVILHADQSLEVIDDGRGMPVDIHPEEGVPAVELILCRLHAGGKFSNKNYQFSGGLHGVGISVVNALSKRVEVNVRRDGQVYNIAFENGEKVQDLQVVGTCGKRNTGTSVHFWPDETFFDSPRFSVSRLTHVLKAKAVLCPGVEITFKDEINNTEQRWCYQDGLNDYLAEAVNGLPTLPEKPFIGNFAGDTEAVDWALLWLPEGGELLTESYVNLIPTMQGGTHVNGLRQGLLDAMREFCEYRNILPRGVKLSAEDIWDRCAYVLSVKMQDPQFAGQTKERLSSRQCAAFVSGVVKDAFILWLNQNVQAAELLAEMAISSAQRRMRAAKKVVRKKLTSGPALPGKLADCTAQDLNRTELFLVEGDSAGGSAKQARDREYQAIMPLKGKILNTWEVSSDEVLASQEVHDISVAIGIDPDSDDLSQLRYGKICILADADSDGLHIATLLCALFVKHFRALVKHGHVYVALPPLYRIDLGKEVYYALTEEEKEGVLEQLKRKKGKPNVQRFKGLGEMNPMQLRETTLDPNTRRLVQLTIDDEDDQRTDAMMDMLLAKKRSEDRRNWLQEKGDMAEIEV
Description: as §1, §2

E. coli = test: MIC, two-fold serial dilution, E. coli; type: cell-based; conditions: Escherichia coli; read-out: Minimum Inhibitory Concentration (MIC), E. coli
Description: as §3, §4, §5

S. aureus = test: MIC, two-fold serial dilution, S. aureus; type: cell-based, Staphylococcus aureus; conditions: Staphylococcus aureus; read-out: Minimum Inhibitory Concentration (MIC), S. aureus
Description: as §3, §4, §5

B. subtilis = test: MIC, two-fold serial dilution, B. subtilis; type: cell-based; conditions: Bacillus subtilis; read-out: Minimum Inhibitory Concentration (MIC), B. subtilis
Description: as §3, §4, §5

[3] = Cell viability assay (MTT); type: cell-based; design: dose or concentration left out as unconfirmed; conditions: human, MCF-10A mammary gland epithelial cells, four days
Description: A human mammary gland epithelial cell line (MCF-10A) was used to conduct a cell viability assay. Compounds 2–6 were incubated with MCF-10A cells for four days, and the viability of the cells was determined using the 3-(4,5-dimethylthiazol-2-yl)-2,5-diphenyltetrazolium bromide (MTT) assay. All compounds had no cytotoxic effects, and the viability of the cells was greater than 85% for most of the compounds examined […], as shown in Table 4.
MTT Assay was performed to investigate the effect of compounds 2–6 on the viability of mammary epithelial cells (MCF-10A) (see Appendix A).

[4] = system: Candida albicans (ATCC 7102); test: Kirby-Bauer disc diffusion, C. albicans; type: cell-based; conditions: % of fluconazole
Description: Furthermore, using fluconazole as a reference drug, 1–21 were tested in vitro for antifungal activity against A. flavus and C. albicans (Table 1).
(§6) The cultures used were collected from the Cairo University’s Microanalytical Centre, Faculty of Science. An updated Kirby-Bauer disc diffusion method was applied for antimicrobial activities of the tests 1–21 compounds [32, 33, 34, 35]. See Appendix A.
The cultures used were collected from the Cairo University’s Microanalytical Centre, Faculty of Science. An updated Kirby-Bauer disc diffusion method was applied for the antimicrobial activities of the tests for compounds 1–21 [28]. […] Plates inoculated with filamentous fungi as Aspergillus flavus were incubated at 25 °C for 48 h; Gram positive bacteria as Staphylococcus aureus (ATCC 12600, Microanalytical center, Cairo, Egypt), Bacillus subtilis (ATCC 6051); Gram negative bacteria as Escherichia coli (ATCC 11775), Pseudomonas aeuroginosa (ATCC 10145) were incubated at 35–37 °C for 24–48 h and yeast as Candida albicans (ATCC 7102) was incubated at 30 °C for 24–48 h and, then the diameters of the inhibition zones were measured in millimeters. […] For the disc diffusion, the zone diameters were measured with slipping calipers of the National Committee for Clinical Laboratory Standards, and the results are given in Table 1. […]

[5] = system: Bacillus subtilis (ATCC 6051); test: Kirby-Bauer disc diffusion, B. subtilis; type: cell-based; conditions: % of ciprofloxacin
Description: (§7) An updated Kirby-Bauer disc diffusion method was used to assess the antimicrobial activity of the tested samples [32, 33, 34, 35]. Using ciprofloxacin as a reference drug, synthetic compounds 1–21 were tested in vitro for antibacterial activity against S. aureus and B. subtilis as Gram-positive strains and E. coli and P. aeruginosa as Gram-negative strains. […]. […].
as §6
(§8) The cultures used were collected from the Cairo University’s Microanalytical Centre, Faculty of Science. An updated Kirby-Bauer disc diffusion method was applied for the antimicrobial activities of the tests for compounds 1–21 [28]. […] Plates inoculated with filamentous fungi as Aspergillus flavus were incubated at 25 °C for 48 h; Gram positive bacteria as Staphylococcus aureus (ATCC 12600, Microanalytical center, Cairo, Egypt), Bacillus subtilis (ATCC 6051); Gram negative bacteria as Escherichia coli (ATCC 11775), Pseudomonas aeuroginosa (ATCC 10145) were incubated at 35–37 °C for 24–48 h and yeast as Candida albicans (ATCC 7102) was incubated at 30 °C for 24–48 h and, then the diameters of the inhibition zones were measured in millimeters. […]

[6] = system: Staphylococcus aureus (ATCC 12600); test: Kirby-Bauer disc diffusion, S. aureus; type: cell-based; conditions: % of ciprofloxacin
Description: as §7, §6
The cultures used were collected from the Cairo University’s Microanalytical Centre, Faculty of Science. An updated Kirby-Bauer disc diffusion method was applied for the antimicrobial activities of the tests for compounds 1–21 [28]. Shortly after, 10 mL of fresh medium was grown to 100 μL bacteria/food until a count of 10^8 cells/mL or 10^5 cells/mL was achieved. One hundred μL microbial suspension was spread over agar plates that suited the broth in which it was held. The selected colonies of each organism that may play a pathogenic function should be from the primary agar plates and tested by the disc diffusion method for susceptibility. Plates inoculated with filamentous fungi as Aspergillus flavus were incubated at 25 °C for 48 h; Gram positive bacteria as Staphylococcus aureus (ATCC 12600, Microanalytical center, Cairo, Egypt), Bacillus subtilis (ATCC 6051); Gram negative bacteria as Escherichia coli (ATCC 11775), Pseudomonas aeuroginosa (ATCC 10145) were incubated at 35–37 °C for 24–48 h and yeast as Candida albicans (ATCC 7102) was incubated at 30 °C for 24–48 h and, then the diameters of the inhibition zones were measured in millimeters. Standard discs of ciprofloxacin (antibacterial agent), fluconazole (antifungal agent) served as positive controls for antimicrobial activity, but filter discs impregnated with 10 µL of solvent (distilled water, chloroform, DMSO) were used as a negative control. Blank paper disks (Schleicher and Schuell, Cytiva, Spain) with a diameter of 8.0 mm were impregnated with 10 µL of tested concentration of the stock solutions. When a filter paper disc impregnated with a tested chemical is placed on agar, the chemical will diffuse from the disc into the agar. This diffusion will place the chemical in the agar only around the disc. The solubility of the chemical and its molecular size will determine the size of the area of chemical infiltration around the disc. […] For the disc diffusion, the zone diameters were measured with slipping calipers of the National Committee for Clinical Laboratory Standards, and the results are given in Table 1. […]

[7] = system: Pseudomonas aeuroginosa (ATCC 10145); test: Kirby-Bauer disc diffusion, P. aeruginosa; type: cell-based, Pseudomonas aeruginosa; conditions: % of ciprofloxacin
Description: as §7, §6, §8

[8] = system: Escherichia coli (ATCC 11775); test: Kirby-Bauer disc diffusion, E. coli; type: cell-based; conditions: % of ciprofloxacin
Description: as §7, §6
The cultures used were collected from the Cairo University’s Microanalytical Centre, Faculty of Science. An updated Kirby-Bauer disc diffusion method was applied for the antimicrobial activities of the tests for compounds 1–21 [28]. Shortly after, 10 mL of fresh medium was grown to 100 μL bacteria/food until a count of 10^8 cells/mL or 10^5 cells/mL was achieved. One hundred μL microbial suspension was spread over agar plates that suited the broth in which it was held. The selected colonies of each organism that may play a pathogenic function should be from the primary agar plates and tested by the disc diffusion method for susceptibility. Plates inoculated with filamentous fungi as Aspergillus flavus were incubated at 25 °C for 48 h; Gram positive bacteria as Staphylococcus aureus (ATCC 12600, Microanalytical center, Cairo, Egypt), Bacillus subtilis (ATCC 6051); Gram negative bacteria as Escherichia coli (ATCC 11775), Pseudomonas aeuroginosa (ATCC 10145) were incubated at 35–37 °C for 24–48 h and yeast as Candida albicans (ATCC 7102) was incubated at 30 °C for 24–48 h and, then the diameters of the inhibition zones were measured in millimeters. […] For the disc diffusion, the zone diameters were measured with slipping calipers of the National Committee for Clinical Laboratory Standards, and the results are given in Table 1. […]

O=C(O)c1cn(C2CC2)c2cc(N3CCN(Cn4nc(CN5CCSCC5)oc4=S)CC3)c(F)cc2c1=O [I]
times more potent than ampicillin [1]: > 41 times

CO[C@@H]1[C@@H](OC(N)=O)[C@@H](O)[C@H](Oc2ccc3c(O)c(NC(=O)c4ccc(O)c(CC=C(C)C)c4)c(=O)oc3c2C)OC1(C)C [Novobiocin]
IC50 [2]: 26.7 µM

O=C(O)c1cn(C2CC2)c2cc(N3CCN(Cn4nc(-c5ccc6ccccc6c5)oc4=S)CC3)c(F)cc2c1=O [Compound 3, 1-Cyclopropyl-6-fluoro-7-[4-(5-naphthalen-2-yl-2-thioxo-[1,3,4]oxadiazol-3-ylmethyl)-piperazin-1-yl]-4-oxo-1,4-dihydro-quinoline-3-carboxylic acid]
IC50 (E. coli DNA gyrase): 0.086 ± 0.009 µM
MIC (P. aeruginosa): 0.05 µg/mL (≈ 0.0875 µM)
melting point: 244 °C
remaining activity at 1 µM (E. coli topoisomerase IV): 58%
MIC (E. coli): 0.125 µg/mL (≈ 0.219 µM)
MIC (S. aureus): 0.125 µg/mL (≈ 0.219 µM)
MIC (B. subtilis): 0.125 µg/mL (≈ 0.219 µM)
viability at 4 days [3]: 85%
antifungal activity against C. albicans relative to fluconazole [4]: 33%

O=C(O)c1cn(C2CC2)c2cc(N3CCN(CN4C(=O)SC(=Cc5ccccc5)C4=O)CC3)c(F)cc2c1=O [Compound 16, 7-[4-(5-Benzylidene-2,4-dioxo-thiazolidin-3-ylmethyl)-piperazin-1-yl]-1-cyclo-propyl-6-fluoro-4-oxo-1,4-dihydro-quinoline-3-carboxylic acid]
antibacterial activity relative to ciprofloxacin, B. subtilis [5]: 93%
antibacterial activity relative to ciprofloxacin, S. aureus [6]: 85%
antibacterial activity relative to ciprofloxacin, P. aeruginosa [7]: 93%
melting point: 237 °C
antibacterial activity relative to ciprofloxacin, E. coli [8]: 93%

Source: paper PMC8145110, “Design, Synthesis, and Antibacterial Screening of Some Novel Heteroaryl-Based Ciprofloxacin Derivatives as DNA Gyrase and Topoisomerase IV Inhibitors” (Pharmaceuticals, 2021)
